Experiment [1] concerns E. coli. Nature of the experiment: Antibiotic susceptibility from single bacterium: FcMBL bead capture, gel matrix, resazurin/Sytox Green 11 live-dead imaging. The conditions noted are these: kanamycin at 50 μg/ml in BHI; captured E. coli grown in gel matrix; time after antibiotic addition. It counts as cell-based. How it is done:
Bacteria in a biological sample were captured by FcMBL coated magnetic beads. The bead/bacteria were washed and added to a microscope compatible surface (for example, plasma treated coverslip or glass bottom microplates) and immobilized by an underlying magnet. A low melt agarose gel 37° C. containing growth media (BHI), resazurin (a stain for labeling live cells), and Sytox Green 11 (a stain for labeling dead cells) was overlaid on the bacteria-bound FcMBL magnetic beads to immobilize and/or secure the bacteria in place. In some embodiments where the bead/bacteria were spotted on glass bottom microplates, the wells were filled with growth medium containing fluorescent stains for live and/or dead cells. The captured bacteria were incubated on the slide or in the wells for about 1-2 hours at about 36-37° C. and imaged by microscopy, e.g., fluorescent microscopy. Live cells could be identified by resorufin (metabolized resazurin) stain and coordinates of the live cells could be determined and stored for iterative imaging. […] Bacteria can be observed for, for example, growth in the presence of the antibiotics (to determine the resistance of the bacteria to the particular antibiotics), cell death determined by fluorescent stain for dead cells (to determine bactericidal activity), and/or inhibition of growth (to determine bacteriostatic activity). […]

Experiment [2] relates to DH5alpha E. coli. Nature of the experiment: FcMBL bead captured bacteria cultured 2 hours in LB with or without antibiotic, quantified on LB Agar plates. The experiment is classed as cell-based. Conditions: 2 hours at 37° C. in LB; Carbenicillin 100 μg/ml (FIG. 3 legend); range of titers down to 300 colonies. How it is done:
In preliminary studies, the inventors tested the discrimination of the antibiotic susceptibility assay described herein with a range of titers of DH5alpha E. coli (corresponding to blood titers from a range of sepsis patients from septic shock to SIRS) FcMBL bead captured bacteria were cultured for 2 hours at 37° C. with vigorous agitation/aeration in Luria Broth (LB) or in LB supplemented with the bacteriocidal antibiotic Carbenicillin or the bacteriostatic antibiotic Spectomycin. The bacteria were quantified on LB Agar plates. In all cases, the inventors were able to discriminate between the growth in LB compared with growth in LB with bacteriocidal or bacteriostatic antibiotic (see FIG. 3).

The structures appear in SMILES notation.

Here are results for two molecules from patent publication US9632085B2, “Rapid antibiotic susceptibility testing” (PRESIDENT AND FELLOWS OF HARVARD COLLEGE, priority 2012, dated 2017).

With `NC[C@H]1O[C@H](O[C@H]2[C@H](O)[C@@H](O[C@H]3O[C@H](CO)[C@@H](O)[C@H](N)[C@H]3O)[C@H](N)C[C@@H]2N)[C@H](O)[C@@H](O)[C@@H]1O` [Kanamycin], in experiment [1], the “color change from red-resorufin to green Sytox green 11 (cell death) observed for some of the bacteria” value is at most 5 min and the “complete effect for all cells in the tracked fields of vision” value fell in the range of 30 to 40 min.

Turning to `CC1(C)S[C@@H]2[C@H](NC(=O)C(C(=O)O)c3ccccc3)C(=O)N2[C@H]1C(=O)O` (stereo partly drawn) [Carbenicillin], in experiment [2], the “bacterial counts compared with LB and LB with bacteriostatic antibiotic” value was “lowest of the three conditions tested”.
